Measured values: US20260102502A1, “C[…] COMPOSITIONS FOR TARGETED […]” (priority 2022, published 2026)

Assay: water solubility of free drug and dendrimer-drug conjugates

## CCCCCCC(C)(C)c1cc(OC)c([C@@H]2C=C(CO)[C@@H]3C[C@H]2C3(C)C)c(OC)c1 [Hu308]
free, unconjugated drug of GD-Hu308 (Table 4)
  Water Solubility Free drug*: <0.1 mg/mL
water
  solubility: < 100 µg/mL
